# Assay results published in patent US7452997B2 (priority 2004, dated 2008).
# Assays:
# human CB1 receptor = molecular target: T1, human CB1 receptor (Homo sapiens, UniProt P21554); experiment: biochemical; assay type: binding
# T1 construct: expressed in transfected cells; host or cells: SK-N-MC cells, stably transfected with pcDNA3 CB-1 (human); semi-purified membrane pellet
# Protocol: (§1) Binding Assay for CB1 or CB2 Agonists or Inverse Agonists
# (§2) The human CB1 and CB2 receptors were stably expressed in SK-N-MC cells transfected with pcDNA3 CB-1 (human) or pcDNA3 CB-2 (human). The cells were grown in T-180 cell culture flasks under standard cell culture conditions at 37° C. in a 5% CO2 atmosphere. The cells were harvested by trysinization and homogenized in a homogenization buffer (10 mM Tris, 0.2 mM MgCl2, 5 mM KCl, with protease inhibitors aprotinin, leupeptin, pepstatin A and bacitracin) and centrifuged (2000 g). The supernatant was then centrifuged in 2M sucrose (31,300 g) to produce a semi-purified membrane pellet. The pellet was resuspended in homogenization and store at −80° C.
# On the day of the assay, the pellet was thawed on ice and diluted in assay buffer (50 mM Tris-HCl, 5 mM MgCl2, 2.5 mM EDTA, 0.5 mg/mL fatty acid free bovine serum albumin, pH 7.5). […] The plate was covered and incubated for 90 minutes at 30° C. The contents were then aspirated onto a Packard […] GF/C filter bottom plate prewet with 0.5% polyethyleneimine. The wells of the polypropylene plate were rinsed and aspirated seven times with a 0.9% saline-0.5% TWEEN 20 solution. The […] plate was dried, a scintillation cocktail was added to each well and the counts representing binding were quantitated in a TOPCOUNT scintillation counter.
# (§3) The IC50 binding values for compounds tested were calculated by linear regression and were obtained from studies in which varying compound concentrations were used.
# human CB2 receptor = human CB2 receptor (Homo sapiens, UniProt P34972); experiment: Binding assay, cannabinoid CB2 receptor ([3H]-CP-55,940 displacement); settings: Cannabinoid CB2 Receptor Binding IC50, human CB2 receptor, SK-N-MC cell membranes, radioligand CP-55,940 0.2 nM
# Protocol: as §1, §2
# On the day of the assay, the pellet was thawed on ice and diluted in assay buffer (50 mM Tris-HCl, 5 mM MgCl2, 2.5 mM EDTA, 0.5 mg/mL fatty acid free bovine serum albumin, pH 7.5). The diluted membrane was added with buffer, test compound or standard and the radioligand [H]^3+-CP-55,940_(0.2 nM) to the wells of a 96-well polypropylene plate. Non-specific binding was measured in wells containing 10 uM WIN 55,212. The plate was covered and incubated for 90 minutes at 30° C. The contents were then aspirated onto a Packard UNIFILTER GF/C filter bottom plate prewet with 0.5% polyethyleneimine. The wells of the polypropylene plate were rinsed and aspirated seven times with a 0.9% saline-0.5% TWEEN 20 solution. The UNIFILTER plate was dried, a scintillation cocktail was added to each well and the counts representing binding were quantitated in a TOPCOUNT scintillation counter.
# as §3
# T1 sequence (P21554 whole entry): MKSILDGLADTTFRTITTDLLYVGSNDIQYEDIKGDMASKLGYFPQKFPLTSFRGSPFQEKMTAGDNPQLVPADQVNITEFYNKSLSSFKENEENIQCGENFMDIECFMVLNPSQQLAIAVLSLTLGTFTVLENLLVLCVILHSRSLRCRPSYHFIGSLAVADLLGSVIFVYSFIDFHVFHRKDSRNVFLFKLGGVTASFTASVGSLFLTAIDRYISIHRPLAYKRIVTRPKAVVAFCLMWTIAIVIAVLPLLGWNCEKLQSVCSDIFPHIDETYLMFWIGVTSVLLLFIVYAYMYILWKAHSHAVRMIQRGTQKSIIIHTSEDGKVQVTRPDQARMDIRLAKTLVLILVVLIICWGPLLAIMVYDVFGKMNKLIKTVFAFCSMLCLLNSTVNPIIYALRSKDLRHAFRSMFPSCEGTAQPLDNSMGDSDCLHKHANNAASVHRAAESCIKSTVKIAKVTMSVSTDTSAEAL
# human CB2 receptor, sequence (P34972 whole entry): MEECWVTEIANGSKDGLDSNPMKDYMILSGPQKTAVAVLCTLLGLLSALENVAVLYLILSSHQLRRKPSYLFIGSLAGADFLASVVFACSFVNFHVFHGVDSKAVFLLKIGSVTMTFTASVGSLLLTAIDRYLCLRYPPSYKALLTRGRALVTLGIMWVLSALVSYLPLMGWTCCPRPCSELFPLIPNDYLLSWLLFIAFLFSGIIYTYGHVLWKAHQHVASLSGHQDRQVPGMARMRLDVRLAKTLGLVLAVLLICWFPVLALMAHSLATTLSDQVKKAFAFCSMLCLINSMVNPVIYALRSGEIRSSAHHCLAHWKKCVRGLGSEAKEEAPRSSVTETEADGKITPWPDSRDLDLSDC
SMILES,IC50 (human CB1 receptor) [nM],IC50 (human CB2 receptor) [nM]
"CC(c1ccccc1)n1nc(C(=O)N[C@@H](C)C2CCCCC2)c2c1CCCC2 (mixture of isomers) [Cpd 249, 1-(1-phenyl-ethyl)-4,5,6,7-tetrahydro-1H-indazole-3-carboxylic acid [(1S)-1-cyclohexyl-ethyl]-amide]",50,
"CC(C)(C)OC(=O)NC1CCc2c(c(C(=O)NC3C4(C)CCC(C4)C3(C)C)nn2C2CCCCC2)C1 (stereo not drawn) [Cpd 86, [1-cyclohexyl-3-(1,3,3-trimethyl-bicyclo[2.2.1]hept-2-ylcarbamoyl)-4,5,6,7-tetrahydro-1H-indazol-5-yl]-carbamic acid tert-butyl ester]",,275
"CC12CCC(C1)C(C)(C)C2NC(=O)c1nn(C2CCCCC2)c2c1CC(=O)CC2 (stereo not drawn) [Cpd 96, 1-cyclohexyl-5-oxo-4,5,6,7-tetrahydro-1H-indazole-3-carboxylic acid (1,3,3-trimethyl-bicyclo[2.2.1]hept-2-yl)-amide]",9500,
COc1ccc(C(=O)CNC(=O)c2nn(C3CCCCC3)c3c2CCCC3)cc1 [Cpd 176],,4000
O=C(NC(Cc1ccc(OCc2ccccc2)cc1)C(=O)O)c1nn(Cc2ccccc2)c2c1CCCC2 (stereo not drawn) [compound 76],1960,
CC(C)(C)OC(=O)NC1CCc2nn(C3CCCCC3)c(C(=O)NC3C4CC5CC(C4)CC3C5)c2C1 (stereo not drawn) [compound 84],400,
O=C(NC1C2CC3CC(C2)CC1C3)c1nn(C2CCCCC2)c2c1CC(C(=O)Nn1cnnc1)CC2 (stereo not drawn) [compound 95],6400,
CC(C)(C)C1CCc2c(c(C(=O)NC3C4CC5CC(C4)CC3C5)nn2C2CCCCC2)C1 (stereo not drawn) [compound 98],20500,
CC(C)(C)C1CCc2c(c(C(=O)NCC34CC5CC(CC(C5)C3)C4)nn2C2CCCCC2)C1 (stereo not drawn) [compound 102],30900,
CN(C(=O)NC1CCc2c(c(C(=O)NC3C4CC5CC(C4)CC3C5)nn2C2CCCCC2)C1)c1ccccc1 (stereo not drawn) [compound 103],2000,
Cc1ccc(S(=O)(=O)NC2CCc3c(c(C(=O)NC4C5CC6CC(C5)CC4C6)nn3C3CCCCC3)C2)cc1 (stereo not drawn) [compound 105],8500,
CN(C)S(=O)(=O)NC1CCc2c(c(C(=O)NC3C4CC5CC(C4)CC3C5)nn2C2CCCCC2)C1 (stereo not drawn) [compound 106],12700,
O=C(N[C@@H]1C2CCC(C2)[C@@H]1COCc1ccccc1Br)c1nn(C2CCCCC2)c2c1CCCC2 (stereo partly drawn) [compound 108],2400,
O=C(NC1CCCCCCC1)c1nn(C2CCCCC2)c2c1CCCC2 [compound 128],10,
O=C(NCCN1CCOCC1)c1nn(Cc2ccccc2)c2c1CCCC2 [compound 175],2160,
C[C@H](NC(=O)c1nn(-c2ccc(Cl)cc2Cl)c2c1CCCC2=Cc1ccc(F)cc1)c1ccccc1 [compound 308],19,
O=C(NN1CCCCCC1)c1nn(-c2ccc(Cl)cc2Cl)c2c1CCCC2=Cc1ccc(F)cc1 [compound 339],8,
C[C@@H](NC(=O)c1nn(-c2ccc(Cl)cc2Cl)c2c1CCCC2=Cc1cccs1)C1CCCCC1 [compound 341],20,
O=C(NN1CCCCC1)c1nn(-c2ccc(Cl)cc2Cl)c2c1CCCC2=Cc1cccs1 [compound 342],41,

SMILES,IC50 (human CB1 receptor) [nM],IC50 (human CB2 receptor) [nM]
O=C(NN1CCCCCC1)c1nn(-c2ccc(Cl)cc2Cl)c2c1CCCC2=Cc1cccs1 [compound 343],37,
CC1CCCC(C)N1NC(=O)c1nn(-c2ccc(Cl)cc2Cl)c2c1CCCC2=Cc1cccs1 (stereo not drawn) [compound 344],53,
O=C(NN1CCCC1)c1nn(-c2ccc(Cl)cc2Cl)c2c1CCCC2=Cc1cccs1 [compound 345],70,
O=C(NN1CC2CCCC2C1)c1nn(-c2ccc(Cl)cc2Cl)c2c1CCCC2=Cc1cccs1 (stereo not drawn) [compound 346],33,
O=C(NN1CCCCC1)c1nn(-c2ccc(Cl)cc2Cl)c2c1CCCC2=Cc1ccsc1 [compound 347],18,
O=C(NN1CCCCCC1)c1nn(-c2ccc(Cl)cc2Cl)c2c1CCC/C2=C\c1ccsc1 [compound 348],11,
CC1CCCC(C)N1NC(=O)c1nn(-c2ccc(Cl)cc2Cl)c2c1CCC/C2=C\c1ccsc1 (stereo not drawn) [compound 349],40,
O=C(NN1CC2CCCC2C1)c1nn(-c2ccc(Cl)cc2Cl)c2c1CCC/C2=C\c1ccsc1 (stereo not drawn) [compound 350],17,
C[C@@H](NC(=O)c1nn(-c2ccc(Cl)cc2Cl)c2c1CCCC2=Cc1ccsc1)C1CCCCC1 [compound 351],12,
C[C@@H](NC(=O)c1nn(-c2ccc(Cl)cc2Cl)c2c1CCC/C2=C\c1ccsc1)c1ccccc1 [compound 353],16,
O=C(N[C@H](CO)c1ccccc1)c1nn(-c2ccc(Cl)cc2Cl)c2c1CCCC2=Cc1ccsc1 [compound 356],77,
O=C(NN1CCCC1)c1nn(-c2ccc(Cl)cc2Cl)c2c1CCCC2=Cc1ccsc1 [compound 357],21,
C[C@@H](NC(=O)c1nn(-c2ccc(Cl)cc2Cl)c2c1CCC/C2=C\c1ccoc1)c1ccccc1 [compound 358],13,
C[C@@H](NC(=O)c1nn(-c2ccc(Cl)cc2Cl)c2c1CCCC2=Cc1ccoc1)C1CCCCC1 [compound 360],12,
CC1CCCC(C)N1NC(=O)c1nn(-c2ccc(Cl)cc2Cl)c2c1CCCC2=Cc1ccoc1 (stereo not drawn) [compound 362],38,
O=C(NN1CCCCCC1)c1nn(-c2ccc(Cl)cc2Cl)c2c1CCC/C2=C\c1ccoc1 [compound 363],13,
O=C(NN1CCCCC1)c1nn(-c2ccc(Cl)cc2Cl)c2c1CCC/C2=C\c1ccoc1 [compound 364],16,
O=C(NN1CC2CCCC2C1)c1nn(-c2ccc(Cl)cc2Cl)c2c1CCC/C2=C\c1ccoc1 (stereo not drawn) [compound 365],16,
O=C(NN1CCCC1)c1nn(-c2ccc(Cl)cc2Cl)c2c1CCCC2=Cc1ccoc1 [compound 368],39,

SMILES,IC50 (human CB1 receptor) [nM],IC50 (human CB2 receptor) [nM]
C[C@@H](NC(=O)c1nn(-c2ccc(Cl)cc2Cl)c2c1CCCC2=Cc1ccco1)c1ccccc1 [compound 371],39,
O=C(NN1CCCCCC1)c1nn(-c2ccc(Cl)cc2Cl)c2c1CCCC2=Cc1ccco1 [compound 373],20,
O=C(NN1CCCCC1)c1nn(-c2ccc(Cl)cc2Cl)c2c1CCC/C2=C\c1ccco1 [compound 374],19,
O=C(NN1CC2CCCC2C1)c1nn(-c2ccc(Cl)cc2Cl)c2c1CCC/C2=C\c1ccco1 (stereo not drawn) [compound 376],16,
O=C(NN1CCCC1)c1nn(-c2ccc(Cl)cc2Cl)c2c1CCC/C2=C\c1ccco1 [compound 377],43,
O=C(NN1CC2CCCC2C1)c1nn(-c2ccc(Cl)cc2Cl)c2c1CCCC2=Cc1ccc(Br)cc1 (stereo not drawn) [compound 380],32,
C[C@@H](NC(=O)c1nn(-c2ccc(Cl)cc2Cl)c2c1CCC/C2=C\c1ccc(Br)cc1)c1ccccn1 [compound 381],15,
C[C@@H](NC(=O)c1nn(-c2ccc(Cl)cc2Cl)c2c1CCCC2=Cc1ccc(Br)cc1)C1CCCCC1 [compound 382],5,
C[C@@H](NC(=O)c1nn(-c2ccc(Cl)cc2Cl)c2c1CCCC2=Cc1ccc(Br)cc1)c1ccccc1 [compound 383],10,
O=C(NN1CCCCC1)c1nn(-c2ccc(Cl)cc2Cl)c2c1CCC/C2=C\c1ccc(Br)cc1 [compound 384],21,
C[C@@H](NC(=O)c1nn(-c2ccc(Cl)cc2Cl)c2c1CCCC2=Cc1ccc(Cl)s1)C1CCCCC1 [compound 385],7,
C[C@@H](NC(=O)c1nn(-c2ccc(Cl)cc2Cl)c2c1CCC/C2=C\c1ccc(Cl)s1)c1ccccc1 [compound 386],11,
O=C(NN1CCCCC1)c1nn(-c2ccc(Cl)cc2Cl)c2c1CCC/C2=C\c1ccc(Cl)s1 [compound 387],33,
O=C(NN1CCCCCC1)c1nn(-c2ccc(Cl)cc2Cl)c2c1CCC/C2=C\c1ccc(Cl)s1 [compound 388],15,
CC1CCCC(C)N1NC(=O)c1nn(-c2ccc(Cl)cc2Cl)c2c1CCC/C2=C\c1ccc(Cl)s1 (stereo not drawn) [compound 389],14,
O=C(NN1CC2CCCC2C1)c1nn(-c2ccc(Cl)cc2Cl)c2c1CCC/C2=C\c1ccc(Cl)s1 (stereo not drawn) [compound 390],20,
O=C(NN1CCCC1)c1nn(-c2ccc(Cl)cc2Cl)c2c1CCCC2=Cc1ccc(Cl)s1 [compound 393],43,
C[C@@H](NC(=O)c1nn(-c2ccc(Cl)cc2Cl)c2c1CCCC2=Cc1ccc(Br)o1)c1ccccc1 [compound 397],59,
C[C@@H](NC(=O)c1nn(-c2ccc(Cl)cc2Cl)c2c1CCC/C2=C\c1ccc(Br)o1)C1CCCCC1 [compound 398],48,
